Assay results from publication PMC9501633, “Synthesis, Characterisation and Mechanism of Action of Anticancer 3-Fluoroazetidin-2-ones” (Pharmaceuticals, 2022).

Key:
OVCAR-4 = experiment: NCI 60 cell line screen, Ovarian; format: cell-based, human; conditions: one dose 10 µM
SK-MEL-5 = experiment: NCI 60 cell line screen, Melanoma; format: cell-based, human; conditions: one dose 10 µM
ACHN = experiment: NCI 60 cell line screen, Renal; format: cell-based, human; conditions: one dose 10 µM
K-562 = experiment: NCI 60 cell line screen, Leukaemia; format: cell-based, human
HS 578T = experiment: NCI 60 cell line screen, Breast; format: cell-based, human; conditions: one dose 10 µM
OVCAR-5 = experiment: NCI 60 cell line screen, Ovarian; format: cell-based, human; conditions: one dose 10 µM
SNB-75 = experiment: NCI 60 cell line screen, CNS; format: cell-based, human; conditions: one dose 10 µM
A498 = experiment: NCI 60 cell line screen, Renal; format: cell-based, human; conditions: one dose 10 µM
OVCAR-8 = experiment: NCI 60 cell line screen, Ovarian; format: cell-based, human; conditions: one dose 10 µM
A549/A TCC = experiment: NCI 60 cell line screen, NSCLung; format: cell-based, human; conditions: one dose 10 µM
KM12 = experiment: NCI 60 cell line screen, Colon; format: cell-based, human; conditions: one dose 10 µM
NCI/ADR-RES = experiment: NCI 60 cell line screen, Ovarian; format: cell-based, human; conditions: one dose 10 µM
EKVX = experiment: NCI 60 cell line screen, NSCLung; format: cell-based, human; conditions: one dose 10 µM
HCC-2998 = experiment: NCI 60 cell line screen, Colon; format: cell-based, human; conditions: one dose 10 µM
SK-MEL-28 = experiment: NCI 60 cell line screen, Melanoma; format: cell-based, human; conditions: one dose 10 µM
DU-145 = experiment: NCI 60 cell line screen, Prostate; format: cell-based, human; conditions: one dose 10 µM
UACC-257 = experiment: NCI 60 cell line screen, Melanoma; format: cell-based, human; conditions: one dose 10 µM
OVCAR-3 = experiment: NCI 60 cell line screen, Ovarian; format: cell-based, human; conditions: one dose 10 µM
SK-OV-3 = experiment: NCI 60 cell line screen, Ovarian; format: cell-based, human; conditions: one dose 10 µM
NCI-H522 = experiment: NCI 60 cell line screen, NSCLung; format: cell-based, human; conditions: one dose 10 µM
LOX IMVI = experiment: NCI 60 cell line screen, Melanoma; format: cell-based, human; conditions: one dose 10 µM
MDA-MB-231/ATCC = experiment: NCI 60 cell line screen, Breast; format: cell-based, human; conditions: one dose 10 µM
HOP-92 = experiment: NCI 60 cell line screen, NSCLung; format: cell-based, human; conditions: one dose 10 µM
M14 = experiment: NCI 60 cell line screen, Melanoma; format: cell-based, human; conditions: one dose 10 µM
NCI-H322M = experiment: NCI 60 cell line screen, NSCLung; format: cell-based, human; conditions: one dose 10 µM
[1] = test system: MCF-7 human breast cancer cells; experiment: AlamarBlue cell viability assay; format: cell-based; conditions: MCF-7, 72 h
Protocol: The antiproliferative potential of the synthesised 3-fluoro β-lactams 26–35 and 3,3-difluoro β-lactams 36–45 was evaluated in MCF-7 human breast cancer cells using the AlamarBlue assay, with CA-4 as reference compound (Figure 3). […] The results for the preliminary in vitro antiproliferative screen for 3-fluoro β-lactam compounds (26–29), which contain different substituents at the para position in the B ring, are presented in Figure 3A.
Cells were seeded at a density of 5 × 10^3 cells/well (MCF-7 and MDA-MB-231) and 1 × 10^4 cells/well (HEK-293T) in 96-well plates (200 μL per well). After 24 h, cells were then treated with medium alone, with vehicle (1% ethanol (v/v)) or with CA-4 or β-lactam compounds at 1 μM and 10 μM concentrations. […] Cell proliferation for MCF-7 cells was analysed with the AlamarBlue assay (Invitrogen Corp.) as previously described by us. After 72 h, AlamarBlue (10% (v/v)) was added to each well, and plates were incubated for 3–5 h at 37 °C in the dark. Fluorescence results were obtained with a 96-well fluorimeter with excitation at 530 nm and emission at 590 nm with results recorded as percentage viability relative to vehicle control (100%). Dose–response curves were obtained and IC50 values (concentration of drug resulting in 50% reduction in cell survival) were calculated using Prism (GraphPad Software, Inc., La Jolla, CA, USA).
Figure 3 Preliminary cell viability data for 3-fluoro and 3,3-difluoro β-lactam compounds. (A) 3-Fluoro β-lactam compounds containing different para-substituent ring B 26–29; 3-fluoro β-lactam compounds containing different meta-substituent ring B 30, 32–35; (B) 3-difluoro β-lactam compounds containing different para-substituent ring B 36–39; 3-difluoro β-lactam compounds containing different meta-substituent ring B 40, 42–45 in MCF-7 breast cancer cells. Cell proliferation of MCF-7 cells was determined with an AlamarBlue assay (seeding density […] for 96-well plates). Compound concentrations of either 10 μM or 1 μM for 72 h were used to treat the cells with control wells containing vehicle ethanol (1% v/v) and CA-4 (10 μM and 1 μM). The mean value for three experiments is shown with the ± S.E.M. for three independent experiments.

CCOc1ccc(C2N(c3cc(OC)c(OC)c(OC)c3)C(=O)C2(F)F)cc1 (stereo not shown) [Compound 37, 4-(4-Ethoxyphenyl)-3,3-difluoro-1-(3,4,5-trimethoxyphenyl)azetidin-2-one]
inhibition at 10 µM (OVCAR-4; Homo sapiens): 50.4% | Growth % (OVCAR-4): 49.59% | inhibition at 10 µM (SK-MEL-5; Homo sapiens): 93.2% | Growth % (SK-MEL-5): 6.76% | inhibition at 10 µM (ACHN; Homo sapiens): 44.8% | Growth % (ACHN): 55.25% | inhibition at 10 µM (K-562; Homo sapiens, K562, one dose 10 µM): 91.5% | Growth % (K-562; one dose 10 µM): 8.49% | inhibition at 10 µM (HS 578T; Homo sapiens): 62.6% | Growth % (HS 578T): 37.42% | inhibition at 10 µM (OVCAR-5; Homo sapiens): 33.5% | Growth % (OVCAR-5): 66.47% | inhibition at 10 µM (SNB-75; Homo sapiens): 44.1% | Growth % (SNB-75): 55.93% | inhibition at 10 µM (A498; Homo sapiens): 7.7% | Growth % (A498): 92.3% | inhibition at 10 µM (OVCAR-8; Homo sapiens): 56.8% | Growth % (OVCAR-8): 43.23% | inhibition at 10 µM (A549/A TCC; Homo sapiens): 66.4% | Growth % (A549/A TCC): 33.56% | inhibition at 10 µM (KM12; Homo sapiens): 72% | Growth % (KM12): 27.97% | inhibition at 10 µM (NCI/ADR-RES; Homo sapiens): 71.1% | Growth % (NCI/ADR-RES): 28.94% | inhibition at 10 µM (EKVX; Homo sapiens): 24.7% | Growth % (EKVX): 75.34% | inhibition at 10 µM (HCC-2998; Homo sapiens): 18.3% | Growth % (HCC-2998): 81.66% | inhibition at 10 µM (SK-MEL-28; Homo sapiens): 33.2% | Growth % (SK-MEL-28): 66.8% | inhibition at 10 µM (DU-145; Homo sapiens): 70% | Growth % (DU-145): 30.05% | inhibition at 10 µM (UACC-257; Homo sapiens): 41.3% | Growth % (UACC-257): 58.69% | inhibition at 10 µM (OVCAR-3; Homo sapiens): 92.8% | Growth % (OVCAR-3): 7.25% | inhibition at 10 µM (SK-OV-3; Homo sapiens): 28.1% | Growth % (SK-OV-3): 71.89% | inhibition at 10 µM (NCI-H522; Homo sapiens): 80.7% | Growth % (NCI-H522): 19.28% | inhibition at 10 µM (LOX IMVI; Homo sapiens): 72.4% | Growth % (LOX IMVI): 27.57% | inhibition at 10 µM (MDA-MB-231/ATCC; Homo sapiens): 53.9% | Growth % (MDA-MB-231/ATCC): 46.12% | inhibition at 10 µM (HOP-92; Homo sapiens): 44.4% | Growth % (HOP-92): 55.62% | inhibition at 10 µM (M14; Homo sapiens): 72.5% | Growth % (M14): 27.45% | inhibition at 10 µM (NCI-H322M; Homo sapiens): 32.8% | Growth % (NCI-H322M): 67.23%

COc1ccc(/C=C\c2cc(OC)c(OC)c(OC)c2)cc1O [CA-4, combretastatin A-4, reference compound]
IC50 ([1]; Homo sapiens, MCF7, 72 h): 3 nM | IC50 [1]: 3.5 nM
